Measurements from patent US20100119599A1 (ARCHER PHARMACEUTICALS, INC., priority 2006, published 2010).

Tests used:
[1] = test system: Aβ1-42; experiment: Measurement of Aβ1-42 in culture medium of 7W WT APP751 CHO cells by ELISA; format: cell-based, Chinese hamster; details: for activity at 5 µM: Cricetulus griseus, Table 1, 5 μM test compound, CHO cells stably transfected with human APP751, culture medium, ELISA, control DMSO, 0 = no detectable amount, read-out: Aβ1-42 (% of control); for Aβ1-42 (% of control): CHO cells that overexpress APP751, zero = below the detection limit of the assay
[2] = test system: Aβ1-40; experiment: Measurement of Aβ1-40 in culture medium of 7W WT APP751 CHO cells by ELISA; format: cell-based, Chinese hamster; details: for activity at 5 µM: Cricetulus griseus, Table 1, 5 μM test compound, CHO cells stably transfected with human APP751, culture medium, ELISA, control DMSO, 0 = no detectable amount; for Aβ1-40 (% of control): CHO cells that overexpress APP751, zero = below the detection limit of the assay
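Further: 5 µM test compound but RI-coded compounds at 10 µM for 24 hours.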

SMILES | activity at 5 µM [1] [%] | activity at 5 µM [2] [%] | Aβ1-42 (% of control) [1] | Aβ1-40 (% of control) [2]
CC1=C(C(=O)OCCc2ccccc2)C(c2ccc(Cl)c(Cl)c2)C2=C(CCCC2=O)N1 (stereo not shown) [ST015098, 2-phenylethyl 4-(3,4-dichlorophenyl)-2-methyl-5-oxo-1,4,6,7,8-pentahydroquinoline-3-carboxylate] | 0 | 40.9 |  | 
CC1=C(C(=O)OCCOc2ccccc2)C(c2ccc(OCc3ccccc3)cc2)C2=C(CCCC2=O)N1 (stereo not shown) [ST014899, 2-phenoxyethyl 2-methyl-5-oxo-4-[4-(phenylmethoxy)phenyl]-1,4,6,7,8-pentahydroquinoline-3-carboxylate] | 65.5 | 55.6 |  | 
CCCCCCNC(=O)CSC1=C(C#N)C(c2cccs2)C(C(=O)Nc2ccccc2)=C(C)N1 (stereo not shown) [RI_26] |  |  | 26.7 % of control | 37.6 % of control
CC1=C(C(=O)Nc2ccccc2)C(c2cccs2)C(C#N)=C(SCC(=O)Nc2cccc(C)c2)N1 (stereo not shown) [RI_91] |  |  | 60.7 % of control | 55.9 % of control
COc1ccc(COC(=O)C2=C(C)NC3=C(C(=O)CCC3)C2c2ccc(Cl)cc2)cc1 (stereo not shown) [ST018648, (4-methoxyphenyl)methyl 4-(4-chlorophenyl)-2-methyl-5-oxo-1,4,6,7,8-pentahydroquinoline-3-carboxylate] | 11 | 7.49 |  | 
CC1=C(C(=O)OCCc2ccccc2)C(c2ccc(C)cc2)C2=C(CCCC2=O)N1 (stereo not shown) [ST015076, 2-phenylethyl 2-methyl-4-(4-methylphenyl)-5-oxo-1,4,6,7,8-pentahydroquinoline-3-carboxylate] | 98.6 | 58.9 |  | 
COC(=O)C1=C(C)NC2=C(C(=O)CCC2)C1c1cccc(OC)c1 (stereo not shown) [ST013153, methyl 4-(3-methoxyphenyl)-2-methyl-5-oxo-1,4,6,7,8-pentahydroquinoline-3-carboxylate] | 66.3 | 91.4 |  | 
CCOC(=O)C1=c2s/c(=C/c3ccc(C)s3)c(=O)n2C(N)=C(C#N)C1c1ccc(C)s1 (stereo not shown) [ST011766] |  |  | 9.558 % of control | 21.1 % of control
CCOc1cccc(C2C(C(=O)OC)=CNC=C2C(=O)OC)c1 [ST052415, methyl 4-(3-ethoxyphenyl)-5-(methoxycarbonyl)-1,4-dihydropyridine-3-carboxylate] |  |  | 72.15 % of control | 70.57 % of control
COc1ccc(C2CC(=O)C3=C(C2)NC(C)=C(C(=O)OC(C)C)C3c2ccc(F)cc2)cc1 (stereo not shown) [ST017066, methylethyl 4-(4-fluorophenyl)-7-(4-methoxyphenyl)-2-methyl-5-oxo-1,4,6,7,8-pentahydroquinoline-3-carboxylate] | 57.4 | 24.9 |  | 
N#CC1=C(N)n2c(s/c(=C\c3ccccc3Cl)c2=O)=C(C#N)C1c1ccccc1Cl (stereo not shown) [ST006953] |  |  | 83.98 % of control | 47.74 % of control
Cc1c(Cl)cccc1NC(=O)CSC1=C(C#N)C(c2cccs2)C2=C(CC(C)(C)CC2=O)N1 (stereo not shown) [ST051161, N-(3-chloro-2-methylphenyl)-2-(3-cyano-7,7-dimethyl-5-oxo-4-(2-thienyl)(2-1,4,6,7,8-pentahydroquinolylthio))acetamide] | 25.4 | 13 |  | 
CC1=C(C(=O)OCCOc2ccccc2)C(c2ccccc2OC(C)C)C2=C(CCCC2=O)N1 (stereo not shown) [ST014919, 2-phenoxyethyl 2-methyl-4-[2-(methylethoxy)phenyl]-5-oxo-1,4,6,7,8-pentahydroquinoline-3-carboxylate] | 85.1 | 63.4 |  | 
COCCOC(=O)C1=C(C)NC2=C(C(=O)CC(C)(C)C2)C1c1cccnc1 (stereo not shown) [ST017252, 2-methoxyethyl 2,7,7-trimethyl-5-oxo-4-(3-pyridyl)-1,4,6,7,8-pentahydroquinoline-3-carboxylate] | 70.5 | 89.6 |  | 
